The test system of test [1] is reactive oxygen species. The class given is cell-based, mouse.
Test [2] relates to OXPHOS gene expression. Format: cell-based, mouse.
For test [3], the system named is nuOXPHOS transcripts. Format: cell-based, mouse. The settings on record: for nucOXPHOS Z: Table 7, C2C12 myotubes, 48 h, composite Z-score.
The test system of test [4] is mtOXPHOS transcripts. Format: cell-based, mouse. The conditions noted are these: for mito-OXPHOS Z: Table 7, C2C12 myotubes, 48 h, composite Z-score.
For test [5], the system named is cytochrome c. Format: cell-based, mouse.
The subject of test [6] is mitochondrial membrane potential. The class given is cell-based, mouse.
Test [7] deals with cellular dehydrogenase activity.
Test [8] relates to C2C12 myotubes.
The mark [9] stands for this setting: Table 3, differentiated C2C12 myotubes, 48 h treatment, composite Z-score vs DMSO.
The mark [10] stands for this setting: Table 6, C2C12 myotubes, 48 h, composite Z-score.
Setting [11] is: Table 5, C2C12 myotubes, 48 h, composite Z-score.
The mark [12] stands for this setting: retest at 20 nM to 20 μM, FIG. 6a.
Where [13] appears, read: composite Z-score vs DMSO, Conc 20 μM.
Where [14] appears, read: 20 μM, composite Z-score vs DMSO.
[15] abbreviates: normalized composite Z-score vs mock-treated (DMSO) wells, Conc 20 μM.

“And” between values parts separate entries of the source, which are not always exact repeats. Equal entries are not always repeated. Where two headings read alike, the source gives them in different places.

For the molecule “podophyllotoxin acetate [reference compound]”, the “ROS Zscore” value in test [1] (setting [9]) is −1.656. Further, in test [2] (setting [9]), the GEHTS_Zscore is 3.506.

Consider `COc1ccc2c(c1)OCC(Cc1ccc(OC)c(OC)c1)C2=O` (stereo not drawn) [deoxysappanone (B) trimethyl ether, reference compound], for which the “ROS Zscore” value in test [1] (setting [10]) is on record as 1.064. The molecule also came in with a GEHTS_Zscore in test [2] (setting [10]) of 0.768.

As for `CN(C)C(=O)Oc1cccc([N+](C)(C)C)c1` [Neostigmine, reference compound], in test [3], the “nucOXPHOS Z” value was −3.54. Besides, the “mito-OXPHOS Z” value in test [4] is −3.45.

On to `N=C1C=CC(=C(c2ccc(N)cc2)c2ccc(N)cc2)C=C1` [Pararosaniline, reference compound], for which the “nucOXPHOS Z” value in test [3] is −2.25. The “mito-OXPHOS Z” value in test [4] is on record as −5.43.

In the case of `COc1ccc2c(c1)OCC(Cc1ccc(OC(C)=O)c(OC)c1)C2=O` (stereo not drawn) [deoxysappanone (B) 7,3′-dimethyl ether acetate, reference compound], the “ROS Zscore” value in test [1] (setting [10]) was −1.894. In test [2] (setting [10]), this molecule returned a GEHTS_Zscore of −0.723.

In the case of `CC(C)[C@]12O[C@H]1[C@@H]1O[C@@]13[C@@]1(C)CCC4=C(COC4=O)[C@@H]1C[C@@H]1O[C@@]13C2=O` [Triptonide, reference compound], the “nucOXPHOS Z” value in test [3] is listed as −2.18. Besides, the “mito-OXPHOS Z” value in test [4] was 5.02.

Consider `COC(=O)Nc1nc2cc(C(=O)c3cccs3)ccc2[nH]1` [Nocodazole, methyl[5-(2-thienylcarbonyl)-1H-benzimidazol-2-yl]carbamate, reference compound], for which the “ROS Zscore” value in test [1] (setting [9]) and in test [1] (setting [11]) was −1.099 each time. Besides, the ROS levels result in test [1] (primary screen, in words) is reported as “suppressing ROS levels”. Also, in test [1] (setting [12]), the “dose at which ROS levels decreased” value came to 2 µM. Moreover, the GEHTS_Zscore in test [2] (setting [9]) and in test [2] (setting [11]) was 2.675 in each case. Moreover, in test [2] (primary screen, in words), the OXPHOS expression entry was “boost OXPHOS expression”. In test [2] (setting [12]), the “dose at which OXPHOS expression increased” value worked out at 2 µM.

For `CC[C@H]1CN2CCc3cc(OC)c(OC)cc3[C@@H]2C[C@@H]1C[C@H]1NCCc2cc(OC)c(OC)cc21` [Emetine, reference compound], the nuOXPHOS expression result in test [3] is on record as “preferentially increase”. Besides, in test [5], the cyt c is given as −1.644 and the “cyt c (composite Z-score)” value is listed as −0.191.

The molecule `O=c1cccc2n1C[C@@H]1CNC[C@H]2C1` [cytisine] had an ROS in test [1] of 1.150. This molecule also showed a GE-HTS in test [2] of 0.025. Moreover, the cyt c in test [5] is 0.186 and 0.095.

As for `C[C@H]1C/C=C/[C@H]2[C@@H]3O[C@]3(C)[C@@H](C)[C@H]3[C@H](Cc4ccccc4)NC(=O)[C@]32OC(=O)O/C=C/[C@@](C)(O)C1=O` [cytochalasin e, reference compound], in test [1] (setting [9]), the “ROS Zscore” value is −2.109. In test [2] (setting [9]), the GEHTS_Zscore is 2.827.

In the case of `O=c1[nH]cc(F)c(=O)[nH]1` [Fluorouracil, reference compound], the “nucOXPHOS Z” value in test [3] came out at 1.50. In test [4], the “mito-OXPHOS Z” value is 1.55.

Turning to `O=C1C(Cl)=C(Cl)C(=O)C(Cl)=C1Cl` [Chloranil, reference compound], the “nucOXPHOS Z” value in test [3] is recorded as −2.45. For the same molecule, in test [4], the “mito-OXPHOS Z” value is on record as 2.50.

The molecule dimenhydrinate showed a ΔΨm in test [6] (setting [13]) of −0.890. The molecule also registered an ROS in test [1] (setting [13]) of 0.339. In addition, in test [2] (setting [13]), the GE-HTS is −0.225. Moreover, in test [3] (setting [13]), the nucOX is −0.086. In test [7] (setting [13]), this molecule yielded an MTT of −1.505.

As to `COc1ccc2c(c1)c(CC(=O)O)c(C)n2C(=O)c1ccc(Cl)cc1` [Indomethacin, reference compound], in test [3], the “nucOXPHOS Z” value came to 1.32. Also, the “mito-OXPHOS Z” value in test [4] turned out to be 2.40.

In test [1], `CN(C)CCCN1c2ccccc2Sc2ccc(C(F)(F)F)cc21` [triflupromazine] gave an ROS of 1.208. In test [2], this molecule had a GE-HTS of 0.225. This molecule also displayed a nucOX in test [3] of 0.404.

For the molecule `CC1=CC(=O)c2ccccc2C1=O` [Menadione, reference compound], the “nucOXPHOS Z” value in test [3] is −3.40. Besides, the “mito-OXPHOS Z” value in test [4] is 2.13.

On to `CC[C@@]1(O)C[C@H](O[C@H]2C[C@H](N(C)C)[C@H](O)[C@H](C)O2)c2c(cc3c(c2O)C(=O)c2c(O)ccc(O)c2C3=O)[C@H]1C(=O)OC` [Pyrromycin, reference compound], for which the “nucOXPHOS Z” value in test [3] is reported as −2.89. In addition, the “mito-OXPHOS Z” value in test [4] is recorded as −2.67.

As for `COc1ccc2c(c1)OC[C@@H](Cc1ccc(OC)c(OC)c1)[C@H]2O` [tetrahydrosappanone (A) trimethyl ether, reference compound], the “ROS Zscore” value in test [1] (setting [10]) came to 0.274. Besides, the GEHTS_Zscore in test [2] (setting [10]) amounted to 0.583.

In the case of `CC(=O)Nc1ccc(O)cc1` [acetaminophen], in test [1], the ROS came to 0.527. The molecule further had a mitoOX in test [4] of 0.317.

For `CCCCCCCCCCCCCCCC[N+](C)(C)C.[Br-]` [cetrimonium bromide, reference compound], the “nucOXPHOS Z” value in test [3] is on record as −2.70. In test [4], the “mito-OXPHOS Z” value was found to be 1.66.

`OCCN1CCN(CCCN2c3ccccc3Sc3ccc(Cl)cc32)CC1` [Perphenazine, reference compound]: in test [3] (20 μM, within the first hour of treatment), the “decline of nuOXPHOS expression” value is reported as 21%.

Regarding `COC1=CC(=O)C[C@@H](C)[C@]12Oc1c(Cl)c(OC)cc(OC)c1C2=O` [griseofulvin, reference compound], in test [1] (setting [11]), the “ROS Zscore” value is reported as 0.371. In addition, the ROS levels result in test [1] (primary screen, in words) is “did not display the same decrease in ROS levels”. In test [2] (setting [11]), this molecule showed a GEHTS_Zscore of 2.199. Also, the OXPHOS expression result in test [2] (primary screen, in words) is “modest increase”.

For `CCCSc1ccc2nc(NC(=O)OC)[nH]c2c1` [albendazole, reference compound], the “ROS Zscore” value in test [1] is listed as −1.434. In addition, in test [2], the GEHTS_Zscore is 2.379. Also, in test [5], the cyt c is listed as −0.280.

In turn, `CCOC(=O)N1CCC(=C2c3ccc(Cl)cc3CCc3cccnc32)CC1` [loratadine] came in with a ΔΨm in test [6] of 0.191. The ROS in test [1] is reported as 0.764. In test [2], the GE-HTS is given as −0.306. In addition, the cyt c in test [5] is listed as −0.317. In test [8], this molecule gave a Viability of 0.552. Also, the MTT in test [7] is recorded as −1.609.

On to `CC[C@@]1([C@@H]2O[C@@H]([C@H]3O[C@@](O)(CO)[C@H](C)C[C@@H]3C)C[C@@H]2C)CC[C@H]([C@]2(C)CC[C@]3(C[C@H](O)[C@@H](C)[C@@H]([C@@H](C)[C@@H](OC)[C@H](C)C(=O)O)O3)O2)O1` [monensin, reference compound], for which, in test [3], the “nucOXPHOS Z” value was 0.70. The “mito-OXPHOS Z” value in test [4] is given as −4.13.

As to `CO[C@H]1C=C[C@@]23c4cc5c(cc4CN(C[C@@H]2O)[C@H]3C1)OCO5` [Crinamine, reference compound], in test [3], the “nucOXPHOS Z” value is reported as 2.27. The “mito-OXPHOS Z” value in test [4] was −2.89.

For the molecule `CCN(CC)CCCC(C)Nc1c2ccc(Cl)cc2nc2ccc(OC)cc12` (stereo not drawn) [Quinacrine, reference compound], the “nucOXPHOS Z” value in test [3] is listed as −2.65. In test [4], the “mito-OXPHOS Z” value is reported as −2.81.

`CC(=O)CCCCn1c(=O)c2c(ncn2C)n(C)c1=O` [pentoxifylline]: the ΔΨm in test [6] (setting [14]) is on record as −0.696. In test [1] (setting [14]), this molecule showed an ROS of 0.182. This molecule also yielded a GE-HTS in test [2] (setting [14]) of 0.062. This molecule also returned a nucOX in test [3] (setting [14]) of 0.292. Also, the cyt c in test [5] (setting [14]) is listed as −0.798. Moreover, the Viability in test [8] (setting [14]) is 0.375. This molecule also had an MTT in test [7] (setting [14]) of −0.600.

With `O=C1C[C@@H](c2ccc(O)cc2)Oc2cc(O)ccc21` [liquiritigenin], the ΔΨm in test [6] (setting [15]) came to 1.004. Besides, the ROS in test [1] (setting [15]) is listed as 0.301. The same molecule showed a GE-HTS in test [2] (setting [15]) of −0.749. This molecule displayed a mitoOX in test [4] (setting [15]) of −1.069. In test [5] (setting [15]), the cyt c was found to be 0.523. For the same molecule, in test [8] (setting [15]), the Viability is 1.353. The molecule further came in with an MTT in test [7] (setting [15]) of −0.429.

Consider `COc1ccc2c(c1)OCC(=Cc1ccc(O)c(O)c1)C2=O` [sappanone (A) 7-methyl ether, reference compound], for which the “ROS Zscore” value in test [1] (setting [10]) is −1.493. In test [2] (setting [10]), this molecule showed a GEHTS_Zscore of 1.410.

As for `CC(C)=CCC[C@]1(C)C=Cc2c(O)c3c(c(CC=C(C)C)c2O1)O[C@]12C(=C[C@@H]4CC1C(C)(C)O[C@@]2(C/C=C(/C)C(N)=O)C4=O)C3=O` [gambogic acid amide, reference compound], the “nucOXPHOS Z” value in test [3] is reported as −4.01. In addition, the “mito-OXPHOS Z” value in test [4] is listed as −2.68.

For the molecule `Nc1cc(N2CCCCC2)nc(N)[n+]1[O-]` [Minoxidil, reference compound], in test [3], the “nucOXPHOS Z” value turned out to be 2.38. Also, the “mito-OXPHOS Z” value in test [4] is on record as 1.37.

With “sappanone (A) dimethyl ether [reference compound]”, the “ROS Zscore” value in test [1] (setting [10]) was −2.429. This molecule also gave a GEHTS_Zscore in test [2] (setting [10]) of 0.524.

On to `COc1cccc2c1C(=O)c1c(O)c3c(c(O)c1C2=O)C[C@@](O)(C(=O)CO)C[C@@H]3O[C@H]1C[C@H](N)[C@H](O)[C@H](C)O1` [Doxorubicin, reference compound], for which the “nucOXPHOS Z” value in test [3] was −1.85. Also, the “mito-OXPHOS Z” value in test [4] was 2.57.

Turning to `COc1cc2c(c(OC)c1OC)-c1ccc(OC)c(=O)cc1[C@@H](NC(C)=O)CC2` [Colchicine, reference compound], the ROS levels entry in test [1] is “did not display the same decrease in ROS levels”. Also, in test [2], the OXPHOS expression entry is “modest increase”. For the same molecule, in test [3], the nucOX was 0.807 and 1.549.

Turning to `COc1ccc2c(c1)OC/C(=C/c1ccc(OC)c(OC)c1)C2=O` [sappanone (A) trimethyl ether, reference compound], in test [1] (setting [10]), the “ROS Zscore” value came to 0.1195. Further, in test [2] (setting [10]), the GEHTS_Zscore is 2.376.

The molecule `C=C(C)[C@@H]1CC[C@]2(CO)CC[C@]3(C)[C@H](CC[C@@H]4[C@@]5(C)CC[C@H](O)C(C)(C)[C@@H]5CC[C@]43C)[C@@H]12` [betulin] came in with a nucOX in test [3] of 0.598.
